Laboratory results taken from US7723320B2, “Use of estrogen compounds to increase libido in women” (Pantarhei Bioscience B.V., priority 2001, dated 2010).
“And” between values parts separate entries of the source, which are not always exact repeats. Equal entries are not always repeated.

Tested on: ovariectomized adult rats
Experiment: Vaginal cornification bioassay in ovariectomized rats
Type: in vivo, rat
Text: Uterine weight increase in the rat is more commonly used as a measure of estrogenicity. […] In the early 1920s it was discovered that follicular fluid from the pig ovary contained a factor(s) that caused cornification/keratinization of the vaginal epithelium in the rat (Allen and Doisy, 1923, JAMA, 81,819-821; Allen and Doisy, 1924, Am. J. Physiol., 69, 577-588). The so-called vaginal cornification response in rats subsequently provided a bioassay for testing estrogenicity. Vaginal epithelial cornification/keratinization in ovariectomized rats can be produced only by compounds considered to be true estrogens (Jones et al, 1973, Fert. Steril. 24, 284-291). […] Adult intact female CD rats were ovariectomized to induce estrogen deficiency. […] Castrate vaginal smears are indicative that complete ovanectomy was achieved. Treatment commenced following completion of the 7 days of smearing (day 0=first day of dosing). Animals were dosed, once daily for 7 consecutive days. Daily vaginal lavages continued to be obtained for 7 days after dosing was initiated in order to detect vaginal cornification, as an indication of an estrogenic response. A drop of vaginal washings was placed on a glass slide and examined by light microscopy to detect the presence or absence of cornified epithelial cells. Vaginal lavages were obtained prior to dosing on days 0-6 and prior to necropsy on day 7. The vaginal cornification bioassay was performed in order to determine the estrogenic profile of E4 when given subcutaneously (sc) to ovariectomized adult rats. E2 was used as a positive control. […] The vaginal cornification bioassay was performed in order to determine the estrogenic profile of E4 when given orally (po) to ovariectomized adult rats. EE was used as a positive control. […] A vaginal estrogenic response occurred in all rats (8/8) given 50 μg/kg/day EE po by day 7 (Table 2).

SMILES: C[C@]12CC[C@@H]3c4ccc(O)cc4CC[C@H]3[C@@H]1[C@@H](O)[C@@H](O)[C@@H]2O [E4, 1,3,5(10)-estratrien-3,15α,16α,17β-tetrol]
- Number of Rats Exhibiting Estrogenic Response/Number of Rats Treated (po, 0.1 mg/kg/day, Day 0): 0/8
- Number of Rats Exhibiting Estrogenic Response/Number of Rats Treated (po, 0.1 mg/kg/day, Day 1): 0/8
- Number of Rats Exhibiting Estrogenic Response/Number of Rats Treated (po, 0.1 mg/kg/day, Day 2): 1/8
- Number of Rats Exhibiting Estrogenic Response/Number of Rats Treated (po, 0.1 mg/kg/day, Day 3): 7/8
- Number of Rats Exhibiting Estrogenic Response/Number of Rats Treated (po, 0.1 mg/kg/day, Day 4): 8/8
- Number of Rats Exhibiting Estrogenic Response/Number of Rats Treated (po, 0.1 mg/kg/day, Day 5): 8/8
- Number of Rats Exhibiting Estrogenic Response/Number of Rats Treated (po, 0.1 mg/kg/day, Day 6): 8/8
- Number of Rats Exhibiting Estrogenic Response/Number of Rats Treated (po, 0.1 mg/kg/day, Day 7): 8/8
- Number of Rats Exhibiting Estrogenic Response/Number of Rats Treated (po, 0.3 mg/kg/day, Day 0): 0/8
- Number of Rats Exhibiting Estrogenic Response/Number of Rats Treated (po, 0.3 mg/kg/day, Day 1): 0/8
- Number of Rats Exhibiting Estrogenic Response/Number of Rats Treated (po, 0.3 mg/kg/day, Day 2): 1/8
- Number of Rats Exhibiting Estrogenic Response/Number of Rats Treated (po, 0.3 mg/kg/day, Day 3): 7/8
- Number of Rats Exhibiting Estrogenic Response/Number of Rats Treated (po, 0.3 mg/kg/day, Day 4): 8/8
- Number of Rats Exhibiting Estrogenic Response/Number of Rats Treated (po, 0.3 mg/kg/day, Day 5): 8/8
- Number of Rats Exhibiting Estrogenic Response/Number of Rats Treated (po, 0.3 mg/kg/day, Day 6): 8/8
- Number of Rats Exhibiting Estrogenic Response/Number of Rats Treated (po, 0.3 mg/kg/day, Day 7): 8/8
- Number of Rats Exhibiting Estrogenic Response/Number of Rats Treated (po, 1.0 mg/kg/day, Day 0): 0/8
- Number of Rats Exhibiting Estrogenic Response/Number of Rats Treated (po, 1.0 mg/kg/day, Day 1): 0/8
- Number of Rats Exhibiting Estrogenic Response/Number of Rats Treated (po, 1.0 mg/kg/day, Day 2): 4/8
- Number of Rats Exhibiting Estrogenic Response/Number of Rats Treated (po, 1.0 mg/kg/day, Day 3): 8/8
- Number of Rats Exhibiting Estrogenic Response/Number of Rats Treated (po, 1.0 mg/kg/day, Day 4): 8/8
- Number of Rats Exhibiting Estrogenic Response/Number of Rats Treated (po, 1.0 mg/kg/day, Day 5): 8/8
- Number of Rats Exhibiting Estrogenic Response/Number of Rats Treated (po, 1.0 mg/kg/day, Day 6): 8/8
- Number of Rats Exhibiting Estrogenic Response/Number of Rats Treated (po, 1.0 mg/kg/day, Day 7): 8/8
- Number of Rats Exhibiting Estrogenic Response/Number of Rats Treated (po, 3.0 mg/kg/day, Day 0): 0/8
- Number of Rats Exhibiting Estrogenic Response/Number of Rats Treated (po, 3.0 mg/kg/day, Day 1): 0/8
- Number of Rats Exhibiting Estrogenic Response/Number of Rats Treated (po, 3.0 mg/kg/day, Day 2): 6/8
- Number of Rats Exhibiting Estrogenic Response/Number of Rats Treated (po, 3.0 mg/kg/day, Day 3): 8/8
- Number of Rats Exhibiting Estrogenic Response/Number of Rats Treated (po, 3.0 mg/kg/day, Day 4): 8/8
- Number of Rats Exhibiting Estrogenic Response/Number of Rats Treated (po, 3.0 mg/kg/day, Day 5): 8/8
- Number of Rats Exhibiting Estrogenic Response/Number of Rats Treated (po, 3.0 mg/kg/day, Day 6): 8/8
- Number of Rats Exhibiting Estrogenic Response/Number of Rats Treated (po, 3.0 mg/kg/day, Day 7): 8/8
- onset of vaginal cornification (animals responding at days 1-3), po versus sc (relatively low doses, e.g. 0.1 mg/kg/day): faster in po-treated
- onset of vaginal epithelial cornification (sc 0.1, 0.3, 1.0 and 3.0 mg/kg/day): dose-dependent
- Number of Rats Exhibiting Estrogenic Response/Number of Rats Treated (sc, 0.1 mg/kg/day, Day 0): 0/8
- Number of Rats Exhibiting Estrogenic Response/Number of Rats Treated (sc, 0.1 mg/kg/day, Day 1): 0/8
- Number of Rats Exhibiting Estrogenic Response/Number of Rats Treated (sc, 0.1 mg/kg/day, Day 2): 0/8
- Number of Rats Exhibiting Estrogenic Response/Number of Rats Treated (sc, 0.1 mg/kg/day, Day 3): 1/8
- Number of Rats Exhibiting Estrogenic Response/Number of Rats Treated (sc, 0.1 mg/kg/day, Day 4): 1/8
- Number of Rats Exhibiting Estrogenic Response/Number of Rats Treated (sc, 0.1 mg/kg/day, Day 5): 4/8
- Number of Rats Exhibiting Estrogenic Response/Number of Rats Treated (sc, 0.1 mg/kg/day, Day 6): 3/8
- Number of Rats Exhibiting Estrogenic Response/Number of Rats Treated (sc, 0.1 mg/kg/day, Day 7): 4/8
- Number of Rats Exhibiting Estrogenic Response/Number of Rats Treated (sc, 0.3 mg/kg/day, Day 0): 0/8
- Number of Rats Exhibiting Estrogenic Response/Number of Rats Treated (sc, 0.3 mg/kg/day, Day 1): 0/8
- Number of Rats Exhibiting Estrogenic Response/Number of Rats Treated (sc, 0.3 mg/kg/day, Day 2): 1/8
- Number of Rats Exhibiting Estrogenic Response/Number of Rats Treated (sc, 0.3 mg/kg/day, Day 3): 5/8
- Number of Rats Exhibiting Estrogenic Response/Number of Rats Treated (sc, 0.3 mg/kg/day, Day 4): 7/8
- Number of Rats Exhibiting Estrogenic Response/Number of Rats Treated (sc, 0.3 mg/kg/day, Day 5): 6/8
- Number of Rats Exhibiting Estrogenic Response/Number of Rats Treated (sc, 0.3 mg/kg/day, Day 6): 7/8
- Number of Rats Exhibiting Estrogenic Response/Number of Rats Treated (sc, 0.3 mg/kg/day, Day 7): 7/8
- Number of Rats Exhibiting Estrogenic Response/Number of Rats Treated (sc, 1.0 mg/kg/day, Day 0): 0/8
- Number of Rats Exhibiting Estrogenic Response/Number of Rats Treated (sc, 1.0 mg/kg/day, Day 1): 0/8
- Number of Rats Exhibiting Estrogenic Response/Number of Rats Treated (sc, 1.0 mg/kg/day, Day 2): 1/8
- Number of Rats Exhibiting Estrogenic Response/Number of Rats Treated (sc, 1.0 mg/kg/day, Day 3): 6/8
- Number of Rats Exhibiting Estrogenic Response/Number of Rats Treated (sc, 1.0 mg/kg/day, Day 4): 8/8
- Number of Rats Exhibiting Estrogenic Response/Number of Rats Treated (sc, 1.0 mg/kg/day, Day 5): 7/8
- Number of Rats Exhibiting Estrogenic Response/Number of Rats Treated (sc, 1.0 mg/kg/day, Day 6): 8/8
- Number of Rats Exhibiting Estrogenic Response/Number of Rats Treated (sc, 1.0 mg/kg/day, Day 7, 1 mg/kg/day): all rats and 8/8
- Number of Rats Exhibiting Estrogenic Response/Number of Rats Treated (sc, 3.0 mg/kg/day, Day 0): 0/8
- Number of Rats Exhibiting Estrogenic Response/Number of Rats Treated (sc, 3.0 mg/kg/day, Day 1): 0/8
- Number of Rats Exhibiting Estrogenic Response/Number of Rats Treated (sc, 3.0 mg/kg/day, Day 2): 3/8
- Number of Rats Exhibiting Estrogenic Response/Number of Rats Treated (sc, 3.0 mg/kg/day, Day 3): 8/8
- Number of Rats Exhibiting Estrogenic Response/Number of Rats Treated (sc, 3.0 mg/kg/day, Day 4): 8/8
- Number of Rats Exhibiting Estrogenic Response/Number of Rats Treated (sc, 3.0 mg/kg/day, Day 5): 8/8
- Number of Rats Exhibiting Estrogenic Response/Number of Rats Treated (sc, 3.0 mg/kg/day, Day 6): 8/8
- Number of Rats Exhibiting Estrogenic Response/Number of Rats Treated (sc, 3.0 mg/kg/day, Day 7, 3 mg/kg/day): all rats and 8/8
